Results reported in patent US20100065444A1, “PACK CONTAINING SOFT CAPSULES” (priority 2007, published 2010).

What was measured:
Type in all cases: physicochemical
[1] = Stability of multivitamin soft capsules in container with channel former and absorbent embedded in the inside walls, 30° C./65% RH
Method: Multivitamin soft capsules (active-compound composition and capsule shell as described below) are introduced into a resealable container in/on the inside wall(s) of which at least one channel former is embedded, at least over part of the area, together with at least one absorbent (type: M-3006-16 Activ-Vial) in the inside walls of which a molecular sieve having a capacity of 1.92 g is embedded.
The multivitamin soft capsules are stored at 30° C. and 65% relative humidity (RH), removed from storage after predetermined times, assessed visually with respect to their appearance and investigated analytically with respect to the amounts of active compound present.

[2] = Stability of multivitamin soft capsules in container with channel former and absorbent embedded in the inside walls, 40° C./75% RH
Text: (§1) Multivitamin soft capsules (active-compound composition and capsule shell as described below) are introduced individually into a thermoformed cavity film made from PVC 250 μm+40 g/m^2 of PVDC and heat-sealed with aluminium foil (20 μm) and into a resealable container in/on the inside wall(s) of which at least one channel former is embedded, at least over part of the area, together with at least one absorbent (type: M-3006-16 Activ-Vial) in the inside walls of which a molecular sieve having a capacity of 1.92 g is embedded.
(§2) The blisters and containers containing the multivitamin soft capsules are stored at 40° C. and 75% relative humidity (RH), removed from storage after predetermined times, assessed visually with respect to their appearance and investigated analytically with respect to the amounts of active compound present. The results are compiled in Tables 1 and 2.

[3] = Stability of multivitamin soft capsules in PVC/PVDC-aluminium blister, 40° C./75% RH
Text: as §1, §2

[4] = Multivitamin soft capsule batch GD 06 0045, 6 months
[5] = Multivitamin soft capsule batch GD 06 0045, Start
[6] = Multivitamin soft capsule batch 9018802, 6 months
[7] = Multivitamin soft capsule batch 9018802, Start
[8] = Multivitamin soft capsule batch 9018401, 3 months
[9] = Multivitamin soft capsule batch 9018401, Start

Row | Compound | amount of active compound present [1, 4] [mg/capsule] | amount of active compound present, % of start [1, 4] [%] | amount of active compound present [1, 5] [mg/capsule] | amount of active compound present, % of start [1, 5] [%] | amount of active compound present [2, 6] [mg/capsule] | amount of active compound present, % of start [2, 6] [%] | amount of active compound present [2, 7] [mg/capsule] | amount of active compound present, % of start [2, 7] [%] | amount of active compound present [3, 8] [mg/capsule] | amount of active compound present, % of start [3, 8] [%] | amount of active compound present [3, 9] [mg/capsule] | amount of active compound present, % of start [3, 9] [%]
1 | O=C(O)CCCC[C@@H]1SC[C@@H]2NC(=O)N[C@@H]21 [Biotin] | 0.185 | 105 | 0.176 | 100 | – | – | – | – | – | – | – | –
2 | Cc1ncc(C[n+]2csc(CCO)c2C)c(N)n1.Cl.[Cl-] [Thiamine*HCL] | – | – | – | – | 19.3 | 98 | 19.6 | 100 | 17.1 | 87 | 19.7 | 100
3 | Cc1ncc(CO)c(CO)c1O.Cl [Pyridoxine*HCL] | 3.39 | 94 | 3.60 | 100 | – | – | – | – | – | – | – | –
4 | Nc1nc2ncc(CNc3ccc(C(=O)N[C@@H](CCC(=O)O)C(=O)O)cc3)nc2c(=O)[nH]1 [Folic acid] | 0.603 | 104 | 0.581 | 100 | 0.520 | 87 | 0.60 | 100 | 0.57 | 92 | 0.62 | 100
5 | NC(=O)c1cccnc1 [Nicotinamide] | 20.1 | 98 | 20.6 | 100 | – | – | – | – | – | – | – | –
6 | Cc1cc2nc3c(=O)[nH]c(=O)nc-3n(C[C@H](O)[C@H](O)[C@H](O)CO)c2cc1C [Riboflavin] | 2.23 | 107 | 2.09 | 100 | – | – | – | – | – | – | – | –
7 | CC1=C(/C=C/C(C)=C/C=C/C(C)=C/C=C/C=C(C)/C=C/C=C(C)/C=C/C2=C(C)CCCC2(C)C)C(C)(C)CCC1 [β-Carotene] | 2.0 | 87 | 2.3 | 100 | – | – | – | – | – | – | – | –
8 | Cyanocobalamine | 0.0158 | 97 | 0.0163 | 100 | 0.173 | 82 | 0.21 | 100 | 0.171 | 86 | 0.199 | 100
9 | O=C1O[C@H]([C@@H](O)CO)C(O)=C1O [Ascorbic acid] | 115.0 | 95 | 120.5 | 100 | 210 | 99 | 213 | 100 | 159 | 76 | 209 | 100
10 | CC(=O)Oc1c(C)c(C)c2c(c1C)CCC(C)(CCC[C@H](C)CCC[C@H](C)CCCC(C)C)O2 (some centres unmarked) [Tocopherol acetate] | 19.8 | 99 | 20.0 | 100 | – | – | – | – | – | – | – | –
11 | CC(C)(CO)[C@@H](O)C(=O)NCCCO [Dexpanthenol] | – | – | – | – | 12.8 | 96 | 13.3 | 100 | 9.7 | 72 | 13.5 | 100
12 | CC(C)(CO)[C@@H](O)C(=O)NCCC(=O)[O-].CC(C)(CO)[C@@H](O)C(=O)NCCC(=O)[O-].[Ca+2] [Calcium panthotenate] | 14.9 | 96 | 15.6 | 100 | – | – | – | – | – | – | – | –
